Assay results reported in paper PMC12979188, “Systematic analyses of lipid mobilization by human lipid transfer proteins” (Nature, 2026).

Tests used:
RBP4 = RBP4 (Homo sapiens, UniProt P02753); assay: affinity purification, SEC and mass spectrometry lipidomics; format: cell-based; conditions: in cellulo, HEK293; retinoid form not specified beyond vitamin A
RBP1 = molecular target: T1, RBP1 (Homo sapiens, UniProt P09455); assay: as above; format: cell-based; conditions: in cellulo, HEK293; retinoid form not specified beyond vitamin A
T1 sequence (P09455 1-135): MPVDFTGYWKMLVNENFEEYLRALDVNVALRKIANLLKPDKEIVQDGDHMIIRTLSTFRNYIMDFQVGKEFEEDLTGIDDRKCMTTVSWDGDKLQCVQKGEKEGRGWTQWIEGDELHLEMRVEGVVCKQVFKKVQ

CC1=C(/C=C/C(C)=C/C=C/C(C)=C/CO)C(C)(C)CCC1 [vitamin A]
affinity purification, SEC and mass spectrometry lipidomics (RBP4): RBP1 and RBP4 formed complexes with vitamin A only in the cellular context
affinity purification, SEC and mass spectrometry lipidomics (RBP1): RBP1 and RBP4 formed complexes with vitamin A only in the cellular context
